# Laboratory results taken from patent publication US20110009624A9, “BENZIMIDAZOLE COMPOUNDS HAVING GASTRIC ACID SECRETION INHIBITORY ACTION” (priority 2006, published 2011).
# What was measured:
# H+, K+-ATPase = target: T1, H+, K+-ATPase (Sus scrofa, UniProt P19156); experiment: H+, K+-ATPase activity inhibitory action; assay type: biochemical; details: hog gastric mucosa enzyme, preincubation 30 minutes at 37° C., pH 6.1
# T1 construct: H^+, K^+-ATPase was prepared from a fundic gland area of fresh hog gastric mucosa; from tissue; host or cells: fundic gland area of fresh hog gastric mucosa
# Experimental: H^+, K^+-ATPase Activity Inhibitory Action
# H^+, K^+-ATPase was prepared from a fundic gland area of fresh hog gastric mucosa using a variation of the Chang's method [Biochim. Biophys. Acta 464, 313 (1977)].
# (1) The sodium salt of 2-[[[4-[3-hydroxy-2-(hydroxymethyl)propoxy]-3,5-dimethylpyridin-2-yl]methyl]sulfinyl]-1H-benzimidazole (Example 15) and (2) 3-[3-hydroxy-2-(hydroxymethyl)propoxy]-2,4-dimethyl-5H-pyrido[1′,2′,4,5][1,2,4]thiadiazino[2,3-a]benzimidazolium hexafluorophosphate (Example 16) were selected for the test compounds, and each was used after dissolving in methanol.
# 10 μL aliquots of various concentrations of the test compounds or solvent were mixed into 200 μL of 50 μg/mL H^+, K^+-ATPase, 100 μL of 10 mmol/L Pipes-Tris (pH 6.1) and 190 μL of distilled water followed by incubating for 30 minutes at 37° C., adding 150 μL of 100 mmol/L KCl (or distilled water) and 10 μL of 100 μg/mL gramicidin, and further incubating for 10 minutes. […] The amount of inorganic phosphoric acid that was released during this 10 minute period was measured in compliance with the method of Yoda and Hokin (Biochem. Biophys. Res. Commun., 40, 880, 1970). […]
# Residual enzyme activity at each concentration of test compound was determined as the amount of H^+, K^+-ATPase activity as a percentage of the H^+, K^+-ATPase activity of a control group (solvent addition). […]
# [1] = tested on: gastric acid secretion (histamine-stimulated); experiment: Gastric acid secretion inhibitory effects in dogs fitted with chronic gastric fistula tube; assay type: in vivo; details: for Gastric acid secretion inhibitory action (%) / Duration of gastric acid secretion inhibitory action (%): dogs with chronic gastric fistula tube, histamine i.v., 1.6 mg/kg i.d.; for Gastric acid secretion inhibitory action (%): day 1 (1 h 40 min to 2 h after administration); for Duration of gastric acid secretion inhibitory action (%): day 2 (24 hours after administration); for gastric acid secretion inhibitory action and duration of gastric acid secretion inhibitory action (assessment in words): on the basis of Table 1
# Experimental: Gastric Acid Secretion Inhibitory Effects in Dogs Fitted with Chronic Gastric Fistula Tube
# The gastric acid secretion inhibitory and duration of gastric acid secretion inhibitory action of compounds of the examples were assessed using large dogs fitted with a chronic gastric fistula tube (body weights: approx. 14 to 19 kg). The experiment was conducted for 2 days. On the first day, gastric juices were collected every 20 minutes under conditions of continuous intravenous administration of histamine (50 or 75 μg/kg/h) for 3 hours. A compound of the examples dissolved or suspended in 0.5% methyl cellulose solution was administered via a catheter implanted in the duodenum at the rate of 0.1 ml/kg one hour after the start of histamine administration. The gastric acid secretion inhibitory action of the compound of the examples was assessed over the next two hours. On the second day (24 hours after administration of the compound of the examples), gastric juices were collected every 20 minutes under conditions of continuous intravenous administration of histamine for 2 hours followed by assessment of the duration of gastric acid secretion inhibitory action. After measuring the amount of gastric juices, 0.5 ml of gastric juice were sampled and titrated to neutrality to a pH of 7.0 with 0.04 mol/L aqueous sodium hydroxide solution to measure acid concentration. The amount of gastric acid discharged was determined by multiplying the amount of gastric juice by the acid concentration. Gastric acid secretion inhibitory action was evaluated as the rate of gastric acid secretion inhibition (%) on day 1. Gastric acid secretion inhibitory action (%) was determined according to the formula indicated below:
# Gastric acid secretion inhibitory action (%)=(A−B)/A×100
# [A]: amount of gastric acid discharged for 20 minutes from 40 minutes to 1 hour after the start of administration of histamine
# [B]: amount of gastric acid discharged for 20 minutes from 1 hour 40 minutes to 2 hours after the start of administration of the compound of the examples.
# The duration of gastric acid secretion inhibitory action was evaluated as the rate of gastric acid secretion inhibition (%) on day 2. The duration of gastric acid secretion inhibitory action (%) was determined according to the formula indicated below:
# Duration of gastric acid secretion inhibitory action (%)=(C−D)/C×100
# [C]: Total amount of gastric acid discharged from start of administration of histamine on day 1 to one hour later
# [D]: Total amount of gastric acid discharged from start of administration of histamine on day 2 to one hour later.
# T1 sequence (P19156 whole entry): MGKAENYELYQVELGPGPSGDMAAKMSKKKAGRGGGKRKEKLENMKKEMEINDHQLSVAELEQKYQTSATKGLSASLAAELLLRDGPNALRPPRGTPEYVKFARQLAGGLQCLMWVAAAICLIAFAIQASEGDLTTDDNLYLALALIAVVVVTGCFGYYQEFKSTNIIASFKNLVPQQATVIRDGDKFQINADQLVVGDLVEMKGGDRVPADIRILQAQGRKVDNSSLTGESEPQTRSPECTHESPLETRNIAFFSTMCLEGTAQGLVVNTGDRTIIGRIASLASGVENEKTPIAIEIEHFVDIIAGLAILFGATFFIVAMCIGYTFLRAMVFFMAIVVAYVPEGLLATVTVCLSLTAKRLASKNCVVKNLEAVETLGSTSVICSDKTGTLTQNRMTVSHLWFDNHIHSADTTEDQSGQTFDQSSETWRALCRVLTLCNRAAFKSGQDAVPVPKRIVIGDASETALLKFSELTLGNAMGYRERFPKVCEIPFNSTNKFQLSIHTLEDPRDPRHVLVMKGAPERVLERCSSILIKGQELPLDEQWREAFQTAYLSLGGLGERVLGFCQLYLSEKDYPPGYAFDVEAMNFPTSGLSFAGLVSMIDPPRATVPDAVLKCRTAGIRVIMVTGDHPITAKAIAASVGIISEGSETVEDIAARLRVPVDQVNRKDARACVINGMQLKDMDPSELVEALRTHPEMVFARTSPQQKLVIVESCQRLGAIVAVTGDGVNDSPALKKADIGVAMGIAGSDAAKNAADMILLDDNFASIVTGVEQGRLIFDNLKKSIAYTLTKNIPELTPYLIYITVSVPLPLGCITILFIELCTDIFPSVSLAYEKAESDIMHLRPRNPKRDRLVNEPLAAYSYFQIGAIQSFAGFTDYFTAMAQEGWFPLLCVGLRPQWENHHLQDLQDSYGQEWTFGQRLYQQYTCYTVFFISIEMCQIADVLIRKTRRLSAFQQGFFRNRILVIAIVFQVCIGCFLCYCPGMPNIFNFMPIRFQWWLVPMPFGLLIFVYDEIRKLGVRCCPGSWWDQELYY
# T1 sequence (P18434 whole entry partner): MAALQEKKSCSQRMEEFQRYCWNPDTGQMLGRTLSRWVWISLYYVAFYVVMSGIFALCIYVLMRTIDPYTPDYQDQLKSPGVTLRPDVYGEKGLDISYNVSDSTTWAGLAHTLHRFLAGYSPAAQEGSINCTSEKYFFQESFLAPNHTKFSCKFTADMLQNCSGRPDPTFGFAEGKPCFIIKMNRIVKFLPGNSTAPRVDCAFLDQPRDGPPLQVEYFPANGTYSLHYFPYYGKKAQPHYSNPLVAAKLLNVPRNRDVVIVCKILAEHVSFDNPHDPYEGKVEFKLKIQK
Structure (SMILES),"IC50 (H+, K+-ATPase)",Gastric acid secretion inhibitory action (%) [1],Duration of gastric acid secretion inhibitory action (%) [1],gastric acid secretion inhibitory action and duration of gastric acid secretion inhibitory action (assessment in words) [1]
"Cc1c[n+]2c(c(C)c1OCC(CO)CO)CSn1c-2nc2ccccc21 [Example 16, 3-[3-Hydroxy-2-(hydroxymethyl)propoxy]-2,4-dimethyl-5H-pyrido[1′,2′,4,5][1,2,4]thiadiazino[2,3-a]benzimidazolium hexafluorophosphate]",220 nM,–,–,–
"Cc1c(OCCCC2COC3(CCC3)O2)ccnc1C[S+]([O-])c1nc2ccccc2[n-]1.[Na+] (stereo not shown) [Example 9, 2-[[[4-[3-(5,8-dioxaspiro[3.4]octa-6-yl)propoxy]-3-methylpyridin-2-yl]methyl]sulfinyl]-1H-benzimidazole]",–,100%,89%,satisfactory
"Cc1c(OCCC2COC3(CCOCC3)O2)ccnc1C[S+]([O-])c1nc2ccccc2[n-]1.[Na+] (stereo not shown) [Example 13, 2-[[[3-methyl-4-[2-(1,4,8-trioxaspiro[4.5]deca-2-yl)ethoxy]pyridin-2-yl]methyl]sulfinyl]-1H-benzimidazole]",–,100%,84%,satisfactory
